Data as given in patent publication US10016383B2, “Inhibitors of metallo-β-lactamase-enzymes” (McMaster University, priority 2013, dated 2018).
“Also recorded” adds a separate entry of the source.

Key:
Format in all cases: biochemical
[1] = target: T1, KPC-2 (Klebsiella pneumoniae, UniProt Q9F663); test: IC50 enzyme inhibition assay, nitrocefin reporter substrate
T1 construct: All β-lactamase overexpression constructs were generated without the leader peptide in a pET-28b plasmid containing a N-terminal His Tag; His tag (N); made in house
T1 sequence (Q9F663 25-293 limits assumed): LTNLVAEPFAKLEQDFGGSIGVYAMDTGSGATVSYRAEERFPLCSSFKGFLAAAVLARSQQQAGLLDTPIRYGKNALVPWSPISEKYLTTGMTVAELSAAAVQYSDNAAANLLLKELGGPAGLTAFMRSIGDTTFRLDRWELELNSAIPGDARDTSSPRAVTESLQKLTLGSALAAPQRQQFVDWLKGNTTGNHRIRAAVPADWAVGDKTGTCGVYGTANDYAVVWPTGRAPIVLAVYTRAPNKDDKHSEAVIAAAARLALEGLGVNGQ
Description: (§1) Enzyme (NDM-1, 5 nM; VIM-2, 500 pM; CTX-M-15, 500 pM; KPC-2, 5 nM; OXA-48, 1 nM; TEM-1, 100 pM; ACE, 50 nM) was mixed with 30 μM nitrocefin (100 μM nitrocefin for TEM-1; 250 µM furanacryloyl-L-phenylalanylglycylglycine [FAPGG] for ACE^24) after a 5-10 minute preincubation with AM-A. Metallo-enzymes were supplemented with 10 μM ZnSO4. Assays were read in 96-well microplate format at 490 nm using a Spectramax reader (Molecular Devices) at 30-37° C.
(§2) E. coli strain BW25113 was modified by deletion of the bamB and tolC genes so as to increase permeability to and reduce efflux of small molecules. This strain was then further modified by the single-copy chromosomal insertion of the blaNDM-1 gene under control of the pLac promoter. Microbial natural product extracts were screened against this strain in the presence of sublethal ¼ MIC meropenem. AM-A was purified from a hit extract and its structure elucidated by NMR, mass spectrometry and polarimetry. IC50 values for AM-A were determined using nitrocefin (for MBLs and Ser BLs) and furanacryloyl-L-phenylalanylglycylglycine (for ACE)^21 as reporter substrates against the following purified enzymes: MBLs IMP-7, VIM-2, and NDM-1; SBLs CTX-M-15, KPC-2, OXA-48, and TEM-1; as well as ACE from rabbit lung. IC50, reversibility, Zn^2+ restoration, and inactivation enzyme assays were performed in 50 mM HEPES pH 7.5 and measured using a SpectraMax reader (Molecular Devices). ICP-MS experiments were conducted using purified NDM-1 at 5 mg/mL and varying concentrations of AM-A with subsequent dilution and transfer by nebulization into a NexION 3000 ICP mass spectrometer (Perkin Elmer). FIC values were determined using standard methods^27. Various concentrations of AM-A were tested in combination with 2 mg/L meropenem against 200+MBL-expressing clinical isolates including Pseudomonas spp., Acinetobacter spp., and Enterobacteriaceae. A dose of 2×10^6 forming units (cfu) of Klebsiella pneumoniae N11-2218 was used for all organ bacterial load experiments and a dose of 5×10^7cfu for all survival experiments. For all experiments, mice were treated with compound 30 minutes post infection.

[2] = target: T2, CTX-M-15 (Escherichia coli, UniProt Q9EXV5); test: as above
T2 construct: All β-lactamase overexpression constructs were generated without the leader peptide in a pET-28b plasmid containing a N-terminal His Tag; His tag (N); made in house; host or cells: E. coli BL21(DE3)
T2 sequence (Q9EXV5 entry or part of it): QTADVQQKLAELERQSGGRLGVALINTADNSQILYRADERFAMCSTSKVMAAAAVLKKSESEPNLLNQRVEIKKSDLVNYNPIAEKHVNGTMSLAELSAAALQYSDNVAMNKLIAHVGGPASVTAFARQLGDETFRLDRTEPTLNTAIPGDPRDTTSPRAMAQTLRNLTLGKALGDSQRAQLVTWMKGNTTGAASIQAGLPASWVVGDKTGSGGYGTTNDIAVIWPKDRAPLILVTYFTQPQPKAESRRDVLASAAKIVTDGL
Description: as §1, §2

[3] = target: T3, OXA-48 (Klebsiella pneumoniae, UniProt Q6XEC0); test: as above
T3 construct: All β-lactamase overexpression constructs were generated without the leader peptide in a pET-28b plasmid containing a N-terminal His Tag; His tag (N); made in house; host or cells: E. coli BL21(DE3)
T3 sequence (Q6XEC0 23-265 limits assumed): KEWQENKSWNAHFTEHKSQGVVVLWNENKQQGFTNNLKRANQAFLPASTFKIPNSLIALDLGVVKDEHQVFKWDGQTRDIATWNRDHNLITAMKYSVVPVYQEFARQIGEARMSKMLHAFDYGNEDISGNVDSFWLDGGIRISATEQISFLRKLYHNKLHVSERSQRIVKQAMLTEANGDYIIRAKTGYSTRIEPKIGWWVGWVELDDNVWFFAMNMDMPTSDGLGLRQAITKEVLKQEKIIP
Description: as §1, §2

[4] = target: T4, TEM-1 (Escherichia coli, UniProt P62593); test: as above
T4 construct: All β-lactamase overexpression constructs were generated without the leader peptide in a pET-28b plasmid containing a N-terminal His Tag; His tag (N); made in house; host or cells: E. coli BL21(DE3)
T4 sequence (P62593 24-286 limits assumed): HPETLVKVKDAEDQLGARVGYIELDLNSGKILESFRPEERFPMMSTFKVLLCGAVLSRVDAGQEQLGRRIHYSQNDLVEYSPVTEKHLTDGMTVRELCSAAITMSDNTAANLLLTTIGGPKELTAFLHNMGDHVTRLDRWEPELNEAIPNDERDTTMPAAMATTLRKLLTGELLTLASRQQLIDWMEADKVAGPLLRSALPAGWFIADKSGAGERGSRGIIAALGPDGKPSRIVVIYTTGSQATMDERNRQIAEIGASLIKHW
Description: as §1, §2

[5] = target: T5, VIM-2 (Escherichia coli, UniProt Q5U7L7); test: as above
T5 construct: All β-lactamase overexpression constructs were generated without the leader peptide in a pET-28b plasmid containing a N-terminal His Tag; His tag (N); made in house; host or cells: E. coli BL21(DE3)
Description: as §1, §2

[6] = tested on: IMP-7; test: as above
Description: as §1, §2

[7] = target: T6, ACE from rabbit lung (Oryctolagus cuniculus, UniProt P12822); test: IC50 enzyme inhibition assay, FAPGG reporter substrate; conditions: concentration-response assays
T6 construct: as well as ACE from rabbit lung; from tissue; host or cells: rabbit lung
T6 sequence (P12822 34-1310): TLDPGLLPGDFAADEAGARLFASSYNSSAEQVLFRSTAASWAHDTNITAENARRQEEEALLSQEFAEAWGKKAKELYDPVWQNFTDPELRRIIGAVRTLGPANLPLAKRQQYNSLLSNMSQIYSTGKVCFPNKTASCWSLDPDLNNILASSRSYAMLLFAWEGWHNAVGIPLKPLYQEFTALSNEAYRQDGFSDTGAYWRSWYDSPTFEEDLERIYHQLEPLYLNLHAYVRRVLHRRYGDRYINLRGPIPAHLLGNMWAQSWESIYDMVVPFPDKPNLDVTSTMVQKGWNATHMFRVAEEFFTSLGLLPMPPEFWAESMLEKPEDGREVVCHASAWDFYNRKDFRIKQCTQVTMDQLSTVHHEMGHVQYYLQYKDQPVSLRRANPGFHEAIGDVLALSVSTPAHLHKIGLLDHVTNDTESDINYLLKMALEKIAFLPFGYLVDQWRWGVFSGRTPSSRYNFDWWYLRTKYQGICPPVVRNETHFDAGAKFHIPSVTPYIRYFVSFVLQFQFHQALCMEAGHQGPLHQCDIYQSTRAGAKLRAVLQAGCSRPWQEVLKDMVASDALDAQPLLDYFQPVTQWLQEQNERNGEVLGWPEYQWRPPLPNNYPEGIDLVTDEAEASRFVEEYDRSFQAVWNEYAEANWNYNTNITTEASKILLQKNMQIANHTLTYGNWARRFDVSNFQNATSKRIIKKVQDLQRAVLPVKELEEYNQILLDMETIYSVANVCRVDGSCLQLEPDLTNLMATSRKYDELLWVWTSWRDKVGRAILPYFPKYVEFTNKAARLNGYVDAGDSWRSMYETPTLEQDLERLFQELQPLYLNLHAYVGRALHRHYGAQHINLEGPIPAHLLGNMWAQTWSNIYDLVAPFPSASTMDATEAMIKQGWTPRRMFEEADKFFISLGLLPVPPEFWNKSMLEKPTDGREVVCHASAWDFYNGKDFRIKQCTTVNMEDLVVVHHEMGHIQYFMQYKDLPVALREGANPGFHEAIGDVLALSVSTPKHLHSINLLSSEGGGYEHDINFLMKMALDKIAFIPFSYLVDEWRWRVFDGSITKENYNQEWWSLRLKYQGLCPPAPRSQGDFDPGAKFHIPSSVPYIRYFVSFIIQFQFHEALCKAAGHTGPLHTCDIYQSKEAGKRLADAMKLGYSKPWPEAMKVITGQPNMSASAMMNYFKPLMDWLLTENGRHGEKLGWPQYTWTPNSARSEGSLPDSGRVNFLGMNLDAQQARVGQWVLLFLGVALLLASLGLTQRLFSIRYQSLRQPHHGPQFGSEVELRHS
Description: as §1
E. coli strain BW25113 was modified by deletion of the bamB and tolC genes so as to increase permeability to and reduce efflux of small molecules. This strain was then further modified by the single-copy chromosomal insertion of the blaNDM-1 gene under control of the pLac promoter. Microbial natural product extracts were screened against this strain in the presence of sublethal ¼ MIC meropenem. AM-A was purified from a hit extract and its structure elucidated by NMR, mass spectrometry and polarimetry. IC50 values for AM-A were determined using nitrocefin (for MBLs and Ser BLs) and furanacryloyl-L-phenylalanylglycylglycine (for ACE)^21 as reporter substrates against the following purified enzymes: MBLs IMP-7, VIM-2, and NDM-1; SBLs CTX-M-15, KPC-2, OXA-48, and TEM-1; as well as ACE from rabbit lung. […] FIC values were determined using standard methods^27. […]

[8] = target: NDM-1 (Klebsiella pneumoniae, UniProt C7C422); test: Inactivation kinetics; parameters: All β-lactamase overexpression constructs were generated without the leader peptide in a pET-28b plasmid containing a N-terminal His Tag; His tag (N, cleaved yes); SUMO (implied by the use of SUMO protease) (N, cleaved yes); made in house; host or cells: E. coli BL21(DE3)
NDM-1, sequence (C7C422 29-270 limits assumed): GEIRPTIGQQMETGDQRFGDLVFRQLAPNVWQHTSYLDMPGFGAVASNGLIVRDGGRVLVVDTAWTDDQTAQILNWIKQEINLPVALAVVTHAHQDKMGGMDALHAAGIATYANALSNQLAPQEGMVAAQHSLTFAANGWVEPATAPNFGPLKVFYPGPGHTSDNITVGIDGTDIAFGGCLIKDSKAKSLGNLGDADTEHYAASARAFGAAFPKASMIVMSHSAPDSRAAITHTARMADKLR
Description: NDM-1 (50 nM) was added to 20 μM nitrocefin containing AM-A in serial ½ dilutions from 8 μM. The assay was performed in 50 mM HEPES pH 7.5, 200 μL final volume. The assay was read in 96-well microplate format at 490 nm using a Spectramax reader (Molecular Devices) for 10 minutes at 37° C. VIM-2 (10 nM) was added to 20 μM nitrocefin containing AM-A in serial ½ dilutions from 16 μM. The assay was performed in 50 mM HEPES pH 7.5, 200 μL final volume. The assay was read in 96-well microplate format at 490 nm using a Spectramax reader (Molecular Devices) for 10 minutes at 37° C. as reported previously. For all assays experiments the offset between reaction initiation and the first read was ˜6s.
Rate constants characterizing the inactivation of enzyme were calculated based on the dependence of the pseudo-first order rate constant, ki, upon AM-A concentration according to the following model:
[formula] where E•Zn, A, E•Zn•A, and Zn•A are the active metalloenzyme, AM-A, the ternary metalloenzyme-AM-A complex, and AM-A-metal complex, respectively. Ki represents the dissociation constant of the ternary complex and k+2 is the rate constant for dissociation of ternary complex into inactivated enzyme (Einact) and AM-A-Zn complex. […]
[formula] […] The individual values of Ki and k+2 were determined by fitting the value of ki to equation 2 as described previously^25: […]

N[C@H](CN[C@H](CN[C@@H](CC(=O)O)C(=O)O)C(=O)O)C(=O)O [AM-A, aspergillomarasmine A]
effect on KPC-2 [1]: no effect | effect on CTX-M-15 [2]: no effect | effect on activity of OXA-48 [3]: no effect; also recorded: unaffected | effect on TEM-1 [4]: no effect | IC50 [5]: 9.6 ± 2.4 µM | in vitro inhibition of VIM-2 [5]: potent in vitro dose-dependent inhibition | activity against IMP-7 [6]: weaker activity; also recorded: less potent inactivation | reduction of activity of rabbit lung ACE [7]: ~35% | Ki [8]: 0.011 µM | k+2 (inactivation rate constant) ([8]; time-dependent inactivation): 0.0062 s⁻¹
